Measurements reported in PubChem BioAssay (NCI).
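96-well plates; 48 h exposure; 5 concentrations. Endpoints by linear interpolation between flanking doses. Not reached: highest tested concentration assigned. TGI marks complete inhibition of growth.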

Assays:
Test in all cases: DTP human tumour cell line panel, 48 h
[1] = system: DU-145 prostate
[2] = system: HCT-116 colon
[3] = system: HOP-92 NSCLC
[4] = system: K-562 leukemia
[5] = system: MALME-3M melanoma
[6] = system: MOLT-4 leukemia
[7] = system: NCI-H23 lung
[8] = system: NCI-H460 lung
[9] = system: NCI-H522 lung
[10] = system: NCI/ADR-RES ovarian
[11] = system: OVCAR-5 ovarian
[12] = system: OVCAR-8 ovarian
[13] = system: RPMI-8226 leukemia
[14] = system: SF-268 CNS
[15] = system: SK-MEL-28 melanoma
[16] = system: SK-OV-3 ovarian
[17] = system: SNB-75 CNS
[18] = system: UACC-257 melanoma
[19] = system: UACC-62 melanoma

**Q.** How did the TGI [1] turn out when `CN(CCNC(=O)c1nn(-c2ccc(Cl)cc2Cl)c2c1Cc1ccccc1-2)CCNC(=O)c1nn(-c2ccc(Cl)cc2Cl)c2c1Cc1ccccc1-2` was run?
**A.** > 61.9 µM

**Q.** And the TGI [2]?
**A.** 4.45 µM

**Q.** What about the TGI [3] of the same molecule?
**A.** 4.88 µM

**Q.** What about the TGI [4] of the same molecule?
**A.** > 26.3 µM

**Q.** What about the TGI [5] of the same molecule?
**A.** 3.42 µM

**Q.** What about the TGI [6] of the same molecule?
**A.** 6.81 µM

**Q.** What about the TGI [7] of the same molecule?
**A.** 30.2 µM

**Q.** And the TGI [8]?
**A.** 4.01 µM

**Q.** What about the TGI [9] of the same molecule?
**A.** 3.71 µM

**Q.** And the TGI [10]?
**A.** 14.9 µM

**Q.** And the TGI [11]?
**A.** > 87.5 µM

**Q.** What about the TGI [12] of the same molecule?
**A.** 4.44 µM

**Q.** And the TGI [13]?
**A.** 4.5 µM

**Q.** And the TGI [14]?
**A.** > 100 µM

**Q.** What about the TGI [15] of the same molecule?
**A.** 4.97 µM

**Q.** And the TGI [16]?
**A.** 97.9 µM

**Q.** And the TGI [17]?
**A.** > 48.2 µM

**Q.** What about the TGI [18] of the same molecule?
**A.** 4.72 µM

**Q.** What about the TGI [19] of the same molecule?
**A.** 3.48 µM

**Q.** What does the source list for `[C-]#[N+]C(=C\c1ccc(O)cc1)/C(=C/c1ccc(O)cc1)[N+]#[C-]`?
**A.** TGI [1]: 7.23 µM; TGI [2]: 15.8 µM; TGI [3]: > 100 µM; TGI [4]: > 100 µM; TGI [5]: 4.39 µM; TGI [6]: 7.67 µM; TGI [7]: 5.93 µM; TGI [8]: > 28.6 µM; TGI [9]: > 33.1 µM; TGI [10]: > 24.5 µM; TGI [11]: > 31.8 µM; TGI [12]: > 20.5 µM; TGI [13]: > 95.2 µM; TGI [14]: > 100 µM; TGI [15]: > 22.4 µM; TGI [16]: > 100 µM; TGI [17]: 6.83 µM; TGI [18]: 6.98 µM; TGI [19]: 3.7 µM
